What was measured:
[1] = mn = molality of the nth substance listed, in mol/kg; conditions: 101 kPa, Liquid; for speed of sound: Sing-around technique in a fixed-path interferometer; for mass density: Vibrating tube method
[2] = cn = amount concentration of the nth substance listed, in mol/dm3; conditions: 101 kPa, Liquid; for speed of sound: Sing-around technique in a fixed-path interferometer; for mass density: Vibrating tube method

Cc1onc(-c2c(F)cccc2Cl)c1C(=O)N[C@@H]1C(=O)N2[C@@H]1SC(C)(C)[C@@H]2C(=O)[O-].[Na+] + O
[1]
Conditions	mass density [kg/m3]	speed of sound [m/s]
298.15 K, m1 = 0.03508	1003.21	1503
298.15 K, m1 = 0.05711	1007	1506.4
298.15 K, m1 = 0.07305	1009.68	1508.6
298.15 K, m1 = 0.09335	1013.04	1511.2
298.15 K, m1 = 0.1142	1016.42	1513.7
298.15 K, m1 = 0.1343	1019.68	1515.8
298.15 K, m1 = 0.148	1021.89	1517.2
298.15 K, m1 = 0.1675	1025.02	1518.9
298.15 K, m1 = 0.1812	1027.16	1520.1
303.15 K, m1 = 0.03508	1001.74	1514.8
303.15 K, m1 = 0.05711	1005.49	1517.8
303.15 K, m1 = 0.07305	1008.14	1519.9
303.15 K, m1 = 0.09335	1011.46	1522.2
303.15 K, m1 = 0.1142	1014.8	1524.4
303.15 K, m1 = 0.1343	1018.04	1526.4
303.15 K, m1 = 0.148	1020.23	1527.6
303.15 K, m1 = 0.1675	1023.33	1529.2
303.15 K, m1 = 0.1812	1025.46	1530.2
308.15 K, m1 = 0.03508	1000.05	1524.9
308.15 K, m1 = 0.05711	1003.77	1527.6
308.15 K, m1 = 0.07305	1006.39	1529.5
308.15 K, m1 = 0.09335	1009.67	1531.6
308.15 K, m1 = 0.1142	1012.98	1533.5
308.15 K, m1 = 0.1343	1016.18	1535.3
308.15 K, m1 = 0.148	1018.35	1536.4
308.15 K, m1 = 0.1675	1021.43	1537.8
308.15 K, m1 = 0.1812	1023.54	1538.7
313.15 K, m1 = 0.03508	998.174	1533.5
313.15 K, m1 = 0.05711	1001.85	1535.9
313.15 K, m1 = 0.07305	1004.44	1537.5
313.15 K, m1 = 0.09335	1007.69	1539.4
313.15 K, m1 = 0.1142	1010.97	1541.1
313.15 K, m1 = 0.1343	1014.14	1542.7
313.15 K, m1 = 0.148	1016.29	1543.7
313.15 K, m1 = 0.1675	1019.34	1544.9
313.15 K, m1 = 0.1812	1021.43	1545.7
318.15 K, m1 = 0.03508	996.11	1540.5
318.15 K, m1 = 0.05711	999.746	1542.6
318.15 K, m1 = 0.07305	1002.31	1544.1
318.15 K, m1 = 0.09335	1005.53	1545.7
318.15 K, m1 = 0.1142	1008.77	1547.3
318.15 K, m1 = 0.1343	1011.91	1548.7
318.15 K, m1 = 0.148	1014.05	1549.5
318.15 K, m1 = 0.1675	1017.07	1550.6
318.15 K, m1 = 0.1812	1019.15	1551.4
323.15 K, m1 = 0.03508	993.877	1546.1
323.15 K, m1 = 0.05711	997.477	1548
323.15 K, m1 = 0.07305	1000.02	1549.2
323.15 K, m1 = 0.09335	1003.2	1550.7
323.15 K, m1 = 0.1142	1006.42	1552.1
323.15 K, m1 = 0.1343	1009.52	1553.3
323.15 K, m1 = 0.148	1011.64	1554
323.15 K, m1 = 0.1675	1014.64	1555
323.15 K, m1 = 0.1812	1016.7	1555.7

[Cl-].[Na+] [sodium chloride] + O
[2]
Conditions	mass density [kg/m3]	speed of sound [m/s]
298.15 K, c1 = 0.0251	998.068	–
298.15 K, c1 = 0.0586	999.427	1501.1
298.15 K, c1 = 0.1021	1001.16	1503.8
298.15 K, c1 = 0.1483	1002.99	1506.4
298.15 K, c1 = 0.2047	1005.19	1509.4
298.15 K, c1 = 0.2543	1007.12	1511.8
303.15 K, c1 = 0.0251	996.654	1511.3
303.15 K, c1 = 0.0586	997.998	1513.4
303.15 K, c1 = 0.1021	999.715	1516
303.15 K, c1 = 0.1483	1001.52	1518.5
303.15 K, c1 = 0.2047	1003.7	1521.4
303.15 K, c1 = 0.2543	1005.61	1523.6
308.15 K, c1 = 0.0251	995.026	1521.9
308.15 K, c1 = 0.0586	996.357	1524
308.15 K, c1 = 0.1021	998.056	1526.5
308.15 K, c1 = 0.1483	999.851	1528.9
308.15 K, c1 = 0.2047	1002.01	1531.6
308.15 K, c1 = 0.2543	1003.9	1533.7
313.15 K, c1 = 0.0251	993.201	1531
313.15 K, c1 = 0.0586	994.523	–
313.15 K, c1 = 0.1021	996.208	1535.5
313.15 K, c1 = 0.1483	997.991	1537.8
313.15 K, c1 = 0.2047	1000.14	1540.3
313.15 K, c1 = 0.2543	1002.01	1542.3
318.15 K, c1 = 0.0251	991.192	1538.5
318.15 K, c1 = 0.0586	992.506	1540.5
318.15 K, c1 = 0.1021	994.181	1542.8
318.15 K, c1 = 0.1483	995.954	1545.1
318.15 K, c1 = 0.2047	998.089	1547.6
318.15 K, c1 = 0.2543	999.952	–
323.15 K, c1 = 0.0251	989.012	1544.6
323.15 K, c1 = 0.0586	990.317	1546.5
323.15 K, c1 = 0.1021	991.983	–
323.15 K, c1 = 0.1483	993.747	1551
323.15 K, c1 = 0.2047	995.872	1553.4
323.15 K, c1 = 0.2543	997.725	1555.2

From the NIST ThermoML archive (doi:10.1021/acs.jced.5b00317)
